Measurements published in patent US8901036B2, “Combinations of phenylsulfonylurea herbicides and safeners” (Bayer Cropscience AG, priority 1994, dated 2014).

How the values were obtained:
[1] = system: Wheat; experiment: Phytotoxicity of herbicide/safener combinations in cereals, glasshouse post-emergence; type: in vivo; settings: no safener, 4 weeks after treatment
Description: (§1) Various crop plants are grown in plastic pots with a diameter of 9 cm in a glasshouse to the stated stage and then treated with the particular herbicide or with a mixture of the herbicide and the safener by the post-emergence method. This entails the herbicide of the formula (A) and the compounds of the formula (B) being applied in the form of aqueous suspensions or emulsions with a water application rate which converts to 300 l/ha. 4 weeks after the treatment, the plants are assessed visually for every type of damage by the applied herbicides, taking particular account of the extent of persistent growth inhibition. The evaluation takes place in percentages (scale from 0 to 100%) compared with untreated controls.

[2] = system: Barley; experiment: as above; type: in vivo; settings: no safener, 4 weeks after treatment
Description: as §1

[3] = system: POAN; experiment: Herbicidal activity on grasses, post-emergence; type: in vivo, Poa annua; settings: no safener, 4-leaf stage
Description: as §1

[4] = system: APSP; experiment: Herbicidal activity on grasses, post-emergence; type: in vivo, Apera spica-venti; settings: no safener, 4-leaf stage
Description: as §1

[5] = system: ALMY; experiment: Herbicidal activity on grasses, post-emergence; type: in vivo, Alopecurus myosuroides; settings: no safener, 4-leaf stage
Description: as §1

[6] = system: AVFA; experiment: Herbicidal activity on grasses, post-emergence; type: in vivo, Avena fatua; settings: no safener, 4-leaf stage
Description: as §1

SMILES: COC(=O)c1ccc(NC(C)=O)cc1S(=O)(=O)NC(=O)Nc1nc(OC)cc(OC)n1 [A1, N-(4,6-Dimethoxypyrimidin-2-ylaminocarbonyl)-2-methoxycarbonyl-5-acetylaminobenzenesulfonamide]
- Phytotoxicity Wheat ([1]; dose A 10 g AS/ha): 25%
- Phytotoxicity Wheat ([1]; dose A 20 g AS/ha): 50%
- Phytotoxicity Barley ([2]; dose A 10 g AS/ha): 50%
- Phytotoxicity Barley ([2]; dose A 20 g AS/ha): 80%

SMILES: COC(=O)c1ccc(CN(C)C=O)cc1S(=O)(=O)NC(=O)Nc1nc(OC)cc(OC)n1.[Na] [A2, N-(4,6-Dimethoxypyrimidin-2-ylaminocarbonyl)-2-methoxycarbonyl-5-(N-formyl-N-methylaminomethyl)benzenesulfonamide sodium salt]
- Phytotoxicity Wheat ([1]; dose A 10 g AS/ha): 20%
- Phytotoxicity Wheat ([1]; dose A 20 g AS/ha): 60%
- Phytotoxicity Barley ([2]; dose A 10 g AS/ha): 40%
- Phytotoxicity Barley ([2]; dose A 20 g AS/ha): 80%

SMILES: COC(=O)c1ccc(NC(C)=O)cc1S(=O)(=O)NC(=O)Nc1nc(OC)cc(OC)n1.[Na] [A3, N-(4,6-Dimethoxypyrimidin-2-ylaminocarbonyl)-2-methoxycarbonyl-5-acetylaminobenzenesulfonamide sodium salt]
- Phytotoxicity Wheat ([1]; dose A 10 g AS/ha): 30%
- Phytotoxicity Wheat ([1]; dose A 20 g AS/ha): 65%
- Phytotoxicity Barley ([2]; dose A 10 g AS/ha): 60%
- Phytotoxicity Barley ([2]; dose A 20 g AS/ha): 95%

SMILES: CCC(=O)N(C)c1ccc(C(=O)OC)c(S(=O)(=O)NC(=O)Nc2nc(OC)cc(OC)n2)c1.[Na] [A4, N-(4,6-Dimethoxypyrimidin-2-ylaminocarbonyl)-2-methoxycarbonyl-5-(N-methyl-N-propionylamino)benzenesulfonamide sodium salt]
- Phytotoxicity Wheat ([1]; dose A 20 g AS/ha): 15%
- Phytotoxicity Wheat ([1]; dose A 40 g AS/ha): 40%
- Phytotoxicity Barley ([2]; dose A 20 g AS/ha): 30%
- Phytotoxicity Barley ([2]; dose A 40 g AS/ha): 80%

SMILES: COC(=O)c1ccc(N(C)C(=O)C(C)C)cc1S(=O)(=O)NC(=O)Nc1nc(OC)cc(OC)n1.[Na] [A5, N-(4,6-Dimethoxypyrimidin-2-ylaminocarbonyl)-2-methoxycarbonyl-5-(N-isopropionylmethylamino)benzenesulfonamide sodium salt]
- % effect on POAN ([3]; dose A 10 g AS/ha): 98%
- % effect on POAN ([3]; dose A 20 g AS/ha): 100%
- % effect on POAN ([3]; dose A 40 g AS/ha): 100%
- % effect on APSP ([4]; dose A 10 g AS/ha): 98%
- % effect on APSP ([4]; dose A 20 g AS/ha): 100%
- % effect on APSP ([4]; dose A 40 g AS/ha): 100%
- % effect on ALMY ([5]; dose A 10 g AS/ha): 95%
- % effect on ALMY ([5]; dose A 20 g AS/ha): 99%
- % effect on ALMY ([5]; dose A 40 g AS/ha): 100%
- % effect on AVFA ([6]; dose A 10 g AS/ha): 85%
- % effect on AVFA ([6]; dose A 20 g AS/ha): 99%
- % effect on AVFA ([6]; dose A 40 g AS/ha): 100%
- Phytotoxicity Wheat ([1]; dose A 20 g AS/ha): 5%
- Phytotoxicity Wheat ([1]; dose A 40 g AS/ha): 20%
- Phytotoxicity Barley ([2]; dose A 20 g AS/ha): 25%
- Phytotoxicity Barley ([2]; dose A 40 g AS/ha): 50%

SMILES: COC(=O)NCc1ccc(C(=O)OC)c(S(=O)(=O)NC(=O)Nc2nc(OC)cc(OC)n2)c1.[Na] [A6, N-(4,6-Dimethoxypyrimidin-2-ylaminocarbonyl)-2-methoxycarbonyl-5-(N-methoxycarbonylaminomethyl)benzenesulfonamide sodium salt]
- % effect on POAN ([3]; dose A 10 g AS/ha): 99%
- % effect on POAN ([3]; dose A 20 g AS/ha): 100%
- % effect on POAN ([3]; dose A 40 g AS/ha): 100%
- % effect on APSP ([4]; dose A 10 g AS/ha): 99%
- % effect on APSP ([4]; dose A 20 g AS/ha): 100%
- % effect on APSP ([4]; dose A 40 g AS/ha): 100%
- % effect on ALMY ([5]; dose A 10 g AS/ha): 99%
- % effect on ALMY ([5]; dose A 20 g AS/ha): 100%
- % effect on ALMY ([5]; dose A 40 g AS/ha): 100%
- % effect on AVFA ([6]; dose A 10 g AS/ha): 80%
- % effect on AVFA ([6]; dose A 20 g AS/ha): 90%
- % effect on AVFA ([6]; dose A 40 g AS/ha): 100%
- Phytotoxicity Wheat ([1]; dose A 20 g AS/ha): 15%
- Phytotoxicity Wheat ([1]; dose A 40 g AS/ha): 40%
- Phytotoxicity Barley ([2]; dose A 20 g AS/ha): 30%
- Phytotoxicity Barley ([2]; dose A 40 g AS/ha): 85%
